Data published in PMC10533412, “Phosphoantigens glue butyrophilin 3A1 and 2A1 to activate Vγ9Vδ2 T cells” (Nature, 2023).
Where “and” joins values, the source holds several entries; their conditions need not be identical. Equal entries are not always repeated. Where two headings read alike, the source gives them in different places. Blank lines part the entries; values can stand above or below the compound they belong to.

Key:
MIA PaCa-2 cells = assay: Cell killing assay: cytotoxicity of Vγ9Vδ2 T cells towards pAg- or zoledronate-treated MIA PaCa-2 cells (luciferase); type: cell-based, human; conditions: Homo sapiens, MIA PaCa-2, read-out: EC50 (M) for MIA PaCa-2 cell lysis mediated by HMBPP analogs and Vγ9Vδ2 T cells
Procedure: (§4) MIA PaCa-2 cells were infected with lentivirus bearing luciferase transgene. Luciferase-positive cells were plated at 5.0 × 10^3 cells per well in 384-well plates 1 day before transfection. All plasmids were transfected into BTN2A^−/− MIA PaCa-2 (BTN2A1/BTN2A2 KO) cells using Lipofectamine 2000 reagent. […] Stable-lite luciferase (Vazyme) was added to each well and the luciferase signal was immediately measured by using the PerkinElmer EnVision microplate reader.
(§5) Percentage of lysis was calculated using the following equation: percentage of specific lysis = (maximum luciferase − experimental luciferase)/maximum luciferase × 100.

BTN3A1 B30.2 domain = target: T1, BTN3A1 B30.2 domain (Homo sapiens, UniProt O00481); assay: ITC: pAg binding to the BTN3A1 B30.2 domain; conditions: 25 °C, read-out: KD, pAg binding to BTN3A1 B30.2 alone
T1 construct: The BTN3A1 B30.2 domain was expressed and purified as described previously; made in house
Procedure: (§1) ITC binding fits were calculated using MicroCal Analysis software.
For pAg binding to the BTN3A1 B30.2 domain, the sample cell and injection syringe were filled with the buffer containing 100 µM protein and 1 mM HMBPP, respectively, or 400 µM protein and 4 mM DMAPP (IPP), respectively.

[1] = target: T2, preconditioned BTN2A1–BTN3A1 B30.2 complex (Homo sapiens, UniProt O00481+Q7KYR7); assay: ITC: pAg binding to the preconditioned BTN2A1 B30.2 and BTN3A1 B30.2 complex
T2 construct: The BTN3A1 B30.2 domain was expressed and purified as described previously; 6xHis; made in house; host or cells: Escherichia coli BL21 (DE3) for BTN2A1 B30.2
Procedure: as §1
For HMBPP binding to the preconditioned BTN2A1 B30.2 and BTN3A1 B30.2 complex, BTN2A1 B30.2 (20 µM) and BTN3A1 B30.2 (10 µM) were incubated in the buffer at a 2:1 ratio and loaded into the sample cell, and the injection syringe was filled with buffer containing 100 µM HMBPP.
For DMAPP/IPP binding to the preconditioned BTN2A1 B30.2 and BTN3A1 B30.2 complex, BTN2A1 B30.2 (200 µM) and BTN3A1 B30.2 (100 µM) were incubated in buffer at a 2:1 ratio and loaded into the sample cell, and the injection syringe was filled with buffer containing 1 mM DMAPP/IPP.
For other pAgs, their concentrations were adjusted to 500 µM, and BTN2A1 B30.2 and BTN3A1 B30.2 were adjusted to 100 µM and 50 µM at a 2:1 ratio.

VpBTN3 BFI = VpBTN3 BFI (Vicugna pacos, UniProt A0A345DF50); assay: ITC: pAg binding to VpBTN3 BFI; design: species or system alpaca (Vicugna pacos)
Procedure: (§2) ITC experiments were performed using the MicroCal PEAQ-ITC instrument (GE Healthcare) at 25 °C. We used an initial injection of 0.4 μl followed by 19 injections (2 µl each) at 150 s time intervals. ITC binding fits were calculated using MicroCal Analysis software. The samples were prepared using a buffer (20 mM HEPES pH 7.5, 150 mM NaCl).
(§3) ITC experiments of HMBPP, DMAPP or IPP binding to the VpBTN3 BFI (or the preconditioned VpBTN3 BFI and VpBTN2 BFI complex) and VpBTN2 BFI (or VpBTN1 BFI) binding to VpBTN3 BFI in the presence of HMBPP, DMAPP or IPP were performed according to the same procedures as for the BTN3A1 B30.2 and BTN2A1 B30.2.

VpBTN1 BFI–VpBTN3 BFI = assay: ITC: VpBTN1 BFI binding to VpBTN3 BFI in the presence of pAg; design: species or system alpaca (Vicugna pacos)
Procedure: as §2, §3

Vγ9Vδ2 T cells = conditions: cited from earlier work
[2] = system: BTN2A−/− MIA PaCa-2 (BTN2A1/BTN2A2 KO) cells; assay: Cell killing assay with BTN2A−/− MIA PaCa-2 (BTN2A1/BTN2A2 KO) cells expressing BTN2A1/BTN2A2 variants; conditions: replicates and mean
Procedure: as §4, §5

VpBTN3 BFI, sequence (A0A345DF50 entry or part of it): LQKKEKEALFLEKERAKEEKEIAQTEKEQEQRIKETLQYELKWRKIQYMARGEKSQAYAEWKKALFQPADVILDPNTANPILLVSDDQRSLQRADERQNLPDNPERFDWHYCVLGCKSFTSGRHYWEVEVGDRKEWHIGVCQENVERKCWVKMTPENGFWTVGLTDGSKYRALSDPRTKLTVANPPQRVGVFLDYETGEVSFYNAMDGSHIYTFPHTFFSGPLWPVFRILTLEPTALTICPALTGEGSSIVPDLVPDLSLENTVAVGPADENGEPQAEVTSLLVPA
T1 sequence (O00481 322-513 limits assumed): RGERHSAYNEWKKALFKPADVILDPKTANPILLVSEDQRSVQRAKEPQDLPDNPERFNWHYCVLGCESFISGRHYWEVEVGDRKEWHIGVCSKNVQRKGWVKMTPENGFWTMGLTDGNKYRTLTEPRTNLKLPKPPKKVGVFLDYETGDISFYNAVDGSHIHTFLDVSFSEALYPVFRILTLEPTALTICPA
T2 sequence (O00481 322-513 limits assumed): as above
T2 sequence (Q7KYR7 316-527 limits assumed): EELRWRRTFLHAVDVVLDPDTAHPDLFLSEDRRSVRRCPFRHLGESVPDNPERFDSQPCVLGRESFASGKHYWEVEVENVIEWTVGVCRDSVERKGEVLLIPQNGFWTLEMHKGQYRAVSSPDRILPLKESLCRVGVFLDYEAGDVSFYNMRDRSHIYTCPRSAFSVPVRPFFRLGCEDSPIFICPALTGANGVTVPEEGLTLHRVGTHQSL

Kd (BTN3A1 B30.2 domain): 120 µM
Kd ([1]; ITC, read-out: KD, pAg binding to the preconditioned BTN2A1–BTN3A1 B30.2 complex): 34.5 µM
Kd (VpBTN3 BFI): 92.7 µM
VpBTN1 binding to VpBTN3 in the presence of pAg (VpBTN1 BFI–VpBTN3 BFI): does not bind
SMILES: CC(C)=CCOP(=O)(O)OP(=O)(O)O [Compound 2, 3-methylbut-2-en-1-yl diphosphate]
EC50 (MIA PaCa-2 cells): 3.38e-05 M
Vγ9Vδ2 T cell activation (Vγ9Vδ2 T cells): weakly activate
Cytotoxicity of Vγ9Vδ2 T cells (percentage of specific lysis) ([2]; DMAPP log concentration -3, 2A1 WT cells): 67.6357% and 66.8005% and 66.45% and 64.9272%
Cytotoxicity of Vγ9Vδ2 T cells (percentage of specific lysis) ([2]; DMAPP log concentration -3, 2A1 ∆C cells): 50.07% and 46.3428% and 49.8006% and 54.0592%
Cytotoxicity of Vγ9Vδ2 T cells (percentage of specific lysis) ([2]; DMAPP log concentration -4, 2A1 WT cells): 51.6139% and 52.9591% and 50.43% and 46.7133%
Cytotoxicity of Vγ9Vδ2 T cells (percentage of specific lysis) ([2]; DMAPP log concentration -4, 2A1 ∆C cells): 32.85% and 28.2229% and 33.1127% and 37.2268%
Cytotoxicity of Vγ9Vδ2 T cells (percentage of specific lysis) ([2]; DMAPP log concentration -5, 2A1 WT cells): 27.5187% and 30.1465% and 24.7% and 16.4296%
Cytotoxicity of Vγ9Vδ2 T cells (percentage of specific lysis) ([2]; DMAPP log concentration -5, 2A1 ∆C cells): 7.57% and 3.153% and 7.027% and 12.531%
Cytotoxicity of Vγ9Vδ2 T cells (percentage of specific lysis) ([2]; DMAPP log concentration -6, 2A1 WT cells): 16.7353% and 16.8396% and 11.83% and 1.904%
Cytotoxicity of Vγ9Vδ2 T cells (percentage of specific lysis) ([2]; DMAPP log concentration -6, 2A1 ∆C cells): -5.456% and -7.052% and -6.983% and -2.333%
Cytotoxicity of Vγ9Vδ2 T cells (percentage of specific lysis) ([2]; DMAPP log concentration -7, 2A1 WT cells): 14.3939% and 14.8552% and 15.57% and 17.4711%
Cytotoxicity of Vγ9Vδ2 T cells (percentage of specific lysis) ([2]; DMAPP log concentration -7, 2A1 ∆C cells): -6.482% and -4.367% and -8.1249% and -6.954%
Cytotoxicity of Vγ9Vδ2 T cells (percentage of specific lysis) ([2]; DMAPP log concentration -8, 2A1 WT cells): 15.6376% and 16.0032% and 16.43% and 17.6429%
Cytotoxicity of Vγ9Vδ2 T cells (percentage of specific lysis) ([2]; DMAPP log concentration -8, 2A1 ∆C cells): -6.047% and -3.94% and -7.782% and -6.418%
Cytotoxicity of Vγ9Vδ2 T cells (percentage of specific lysis) ([2]; DMAPP log concentration -9, 2A1 WT cells): 15.8717% and 18.2997% and 15.33% and 11.8213%
Cytotoxicity of Vγ9Vδ2 T cells (percentage of specific lysis) ([2]; DMAPP log concentration -9, 2A1 ∆C cells): -5.239% and -4.736% and -6.266% and -4.716%
Cytotoxicity of Vγ9Vδ2 T cells (percentage of specific lysis) ([2]; DMAPP log concentration -10, 2A1 WT cells): 19.1442% and 5.933% and 13.82% and 16.3962%
Cytotoxicity of Vγ9Vδ2 T cells (percentage of specific lysis) ([2]; DMAPP log concentration -10, 2A1 ∆C cells): -5.48% and -6.082% and -3.811% and -6.548%

Kd (BTN3A1 B30.2 domain): 658 µM
Kd [1]: 625 µM
Kd (VpBTN3 BFI): 96.1 µM
VpBTN1 binding to VpBTN3 in the presence of pAg (VpBTN1 BFI–VpBTN3 BFI): does not bind
SMILES: C=C(C)CCO[P@@](=O)(O)OP(=O)(O)O [Compound 3, 3-methylbut-3-en-1-yl diphosphate]
EC50 (MIA PaCa-2 cells): 0.00493 M
Vγ9Vδ2 T cell activation (Vγ9Vδ2 T cells): weakly activate
Cytotoxicity of Vγ9Vδ2 T cells (percentage of specific lysis) ([2]; IPP log concentration -3, 2A1 WT cells, listed as IPP): 80.272% and 79.8722% and 80.6% and 81.6589%
Cytotoxicity of Vγ9Vδ2 T cells (percentage of specific lysis) ([2]; IPP log concentration -3, 2A1 ∆C cells, listed as IPP): 66.24% and 65.5729% and 68.622% and 64.5211%
Cytotoxicity of Vγ9Vδ2 T cells (percentage of specific lysis) ([2]; IPP log concentration -4, 2A1 WT cells, listed as IPP): 65.5992% and 65.1182% and 63.37% and 59.3975%
Cytotoxicity of Vγ9Vδ2 T cells (percentage of specific lysis) ([2]; IPP log concentration -4, 2A1 ∆C cells, listed as IPP): 41.6% and 36.6007% and 47.2763% and 40.914%
Cytotoxicity of Vγ9Vδ2 T cells (percentage of specific lysis) ([2]; IPP log concentration -5, 2A1 WT cells, listed as IPP): 35.2807% and 27.2598% and 28.66% and 23.4468%
Cytotoxicity of Vγ9Vδ2 T cells (percentage of specific lysis) ([2]; IPP log concentration -5, 2A1 ∆C cells, listed as IPP): 1.679% and 1.84% and 2.699% and 0.4994%
Cytotoxicity of Vγ9Vδ2 T cells (percentage of specific lysis) ([2]; IPP log concentration -6, 2A1 WT cells, listed as IPP): 15.0716% and 6.17% and 6.634% and -1.341%
Cytotoxicity of Vγ9Vδ2 T cells (percentage of specific lysis) ([2]; IPP log concentration -6, 2A1 ∆C cells, listed as IPP): -15.39% and -15.1198% and -17.7309% and -13.3339%
Cytotoxicity of Vγ9Vδ2 T cells (percentage of specific lysis) ([2]; IPP log concentration -7, 2A1 WT cells, listed as IPP): 11.2422% and 4.023% and 5.64% and 1.654%
Cytotoxicity of Vγ9Vδ2 T cells (percentage of specific lysis) ([2]; IPP log concentration -7, 2A1 ∆C cells, listed as IPP): -18.31% and -18.7728% and -18.1549% and -17.992%
Cytotoxicity of Vγ9Vδ2 T cells (percentage of specific lysis) ([2]; IPP log concentration -8, 2A1 WT cells, listed as IPP): 11.2149% and 6.571% and 5.735% and -0.5797%
Cytotoxicity of Vγ9Vδ2 T cells (percentage of specific lysis) ([2]; IPP log concentration -8, 2A1 ∆C cells, listed as IPP): -16.71% and -15.5368% and -14.5401% and -20.0505%
Cytotoxicity of Vγ9Vδ2 T cells (percentage of specific lysis) ([2]; IPP log concentration -9, 2A1 WT cells, listed as IPP): 7.561% and 7.582% and 2.411% and -7.912%
Cytotoxicity of Vγ9Vδ2 T cells (percentage of specific lysis) ([2]; IPP log concentration -9, 2A1 ∆C cells, listed as IPP): -17.93% and -16.44% and -18.8245% and -18.5163%
Cytotoxicity of Vγ9Vδ2 T cells (percentage of specific lysis) ([2]; IPP log concentration -10, 2A1 WT cells, listed as IPP): 9.041% and 9.773% and 3.545% and -8.179%
Cytotoxicity of Vγ9Vδ2 T cells (percentage of specific lysis) ([2]; IPP log concentration -10, 2A1 ∆C cells, listed as IPP): -16.6% and -16.8802% and -17.0673% and -15.8455%

SMILES: Cc1ccc(C/C(=C\COP(=O)(O)OP(=O)(O)O)CO)cc1 [HMBPP-08, (E)-4-hydroxy-3-(4-methylbenzyl)but-2-enyl diphosphate]
γδ T cell activation (Vγ9Vδ2 T cells): do not efficiently activate
